Consider two compounds from patent US10835170B2, “Methods for detecting neuronal oscillation in the spinal cord associated with pain and diseases or disorders of the nervous system” (Rhode Island Hospital, priority 2015, dated 2020).

This experiment has as its system spinal cord dorsal horn (L4) neuronal oscillation. Put plainly: Spinal cord dorsal horn LFP/PSD recording after intradermal capsaicin injection (model of acute pain). Type of experiment: in vivo, rat. The conditions noted are these: anesthetized rats, FIG. 1B. The protocol: FIG. 1A is a schematic showing electrode placement in the spinal cord dorsal horn (L4) for the recoding of local field potential (LFP) from anesthetized rats (n=3 rats/group).
Experiments were conducted on anesthetized Sprague Dawley rats (200-250 g). […] LFP was sampled at a high frequency (25,000 Hz) and down-sampled offline to 250 Hz.
Natural sensory stimuli (e.g. brush and pinch) and intradermal injections of capsaicin were applied to the receptive field in the hindpaw corresponding to the recording site in the spinal cord. […] PSD plots the distribution of the power amplitude of a waveform as a function of frequency. Spontaneous oscillation in the spinal cord dorsal horn was enhanced compared to baseline LFP recording in response to capsaicin injection in the ipsilateral foot within physiologically relevant frequency bands, e.g., theta and alpha, oscillated at baseline. […] Thus, oscillation was normalized with systemic administration of an analgesic compound.

Molecules are shown by their SMILES.

Consider `COc1cc(CNC(=O)CCCC/C=C/C(C)C)ccc1O` [capsaicin], for which the “Spontaneous oscillation in the spinal cord dorsal horn (PSD) compared to baseline LFP recording” value (intradermal 5% capsaicin injection in the ipsilateral foot, theta and alpha bands) is given as “enhanced”.

Turning to `CC(C)Cc1ccc(C(C)C(=O)O)cc1` (centres unmarked) [ibuprofen], the “Effect on capsaicin-enhanced PSD normalized to baseline” value (ibuprofen 400 mg/Kg intraperitoneally, after intradermal 5% capsaicin, n=3 rats/group) is listed as “mitigation of the enhanced PSD”.
